Experimental findings from patent US20060241114A1, “Derivatives of azasugars as anticancer agents” (priority 2003, published 2006) are described below.

Assay [1] has as its system HT29 (colorectal adenocarcinoma). Put plainly: In vitro growth inhibition screen (sulphorhodamine B), HT29. It is filed as cell-based, human. The note with it: HT29 cells, incubated for 48 hours, sulphorhodamine B dye; read-out: GI50 (concentration which inhibits the cell growth by 50%), HT29 Colorectal adenocarcinoma. The method in brief: (§1)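 GI50 (50% growth inhibition) from sulphorhodamine B staining of TCA-fixed cells, OD 490. Compounds at ten-fold dilutions from ≧100 μM down to 10 nM were added a day after plating and left 48 h; culture in RPMI 1640 with 10% FCS, 37 °C, 5% CO2.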
(In general: In SRB staining, fixed cells bind dye roughly in proportion to their protein.)

Assay [2] concerns MCF7ADR (adriamycin resistant breast adenocarcinoma). The assay can be described thus: In vitro growth inhibition screen (sulphorhodamine B), MCF7ADR. It is filed as cell-based, human. As to conditions: MCF7ADR cells, incubated for 48 hours, sulphorhodamine B dye; read-out: GI50 (concentration which inhibits the cell growth by 50%), MCF7ADR Adriamycin Resistant Breast adenocarcinoma. The method in brief: as §1

Assay [3] has as its system LOX (melanoma). Put plainly: In vitro growth inhibition screen (sulphorhodamine B), LOX. It counts as cell-based, human. The note with it: LOX cells, incubated for 48 hours, sulphorhodamine B dye; read-out: GI50 (concentration which inhibits the cell growth by 50%), LOX Melanoma. The method, boiled down:
as §1

The subject of assay [4] is U251 (human glioblastoma). The assay can be described thus: In vitro growth inhibition screen (sulphorhodamine B), U251. It counts as cell-based. As to conditions: U251 cells, incubated for 48 hours, sulphorhodamine B dye; read-out: GI50 (concentration which inhibits the cell growth by 50%), U251 Human glioblastoma astrocytoma. The method in brief:
as §1

Assay [5] deals with DU145 (prostate carcinoma). Put plainly: In vitro growth inhibition screen (sulphorhodamine B), DU145. It counts as cell-based, human. The note with it: DU145 cells, incubated for 48 hours, sulphorhodamine B dye; read-out: GI50 (concentration which inhibits the cell growth by 50%), DU145 Prostate carcinoma. The method, boiled down:
as §1

Assay [6] has as its system MCF7 (breast adenocarcinoma). The assay can be described thus: In vitro growth inhibition screen (sulphorhodamine B), MCF7. The note with it: MCF7 cells, incubated for 48 hours, sulphorhodamine B dye; read-out: GI50 (concentration which inhibits the cell growth by 50%), MCF7 Breast adenocarcinoma. It counts as cell-based, human. The method, boiled down: as §1

Take `CCCN1C[C@H](OCc2ccccc2)[C@@H](OCc2ccccc2)[C@H](OCc2ccccc2)[C@H]1CNC(=S)Nc1ccc(Cl)cc1` [Compound No. 39, 2,3,4-Tri-O-benzyl-6-N-{[4-chlorophenyl]aminothiocarbonylamino}-1,5-dideoxy-1,5-imino-N-propyl glucitol]: the GI50 in assay [1] was found to be 20.6 µM; in assay [2], 52.7 µM; in assay [3], 103 µM; in assay [4], 31.9 µM; in assay [5], 72.7 µM; in assay [6], 16.1 µM.
Take `CCCN1C[C@H](OCc2ccccc2)[C@@H](OCc2ccccc2)[C@H](OCc2ccccc2)[C@H]1CNC(=O)Nc1ccc(F)cc1` [Compound No. 40, 2,3,4-Tri-O-benzyl-6-N-{[4-fluorophenyl]aminocarbonylamino}-1,5-dideoxy-1,5-imino-N-propyl glucitol]: the GI50 in assay [1] was 2 µM; in assay [2], 18.4 µM; in assay [3], 27.2 µM; in assay [4] it was 20.1 µM; in assay [5] it was 35.7 µM; in assay [6] it was 9.7 µM.
For `C=CCN1C(=O)C(OCc2ccccc2)C(OCc2ccccc2)C(OCc2ccccc2)C1COC(=O)Nc1ccc(Cl)cc1` [Compound No. 41, N-Allyl-6-O-(4-chlorophenylcarbamate)-2,3,4-tri-O-benzyl-D-gluco-δ-lactam], the GI50 in assay [1] was 71.2 µM; in assay [2], above 664 µM; in assay [3], above 664 µM; in assay [4] it was above 664 µM; in assay [5] it was 142 µM; in assay [6], 109 µM.
Regarding `C=CCN1C(=O)[C@H](OCc2ccccc2)[C@@H](OCc2ccccc2)[C@H](OCc2ccccc2)[C@H]1COC(=S)Nc1ccc2ccccc2c1` [Compound No. 42, N-Allyl-2,3,4-Tri-O-benzyl-6-(2-naphthylithiocarbamate)-D-gluco-δ-lactam], the GI50 in assay [1] is 103 µM; in assay [2] it was above 373 µM; in assay [3] it was above 373 µM; in assay [4], above 373 µM; in assay [5], 175 µM; in assay [6] it was 232 µM.
In the case of `CCCN1C(=O)[C@H](O)[C@@H](O)[C@H](O)[C@H]1COC(=O)Nc1ccccc1` [Compound No. 43, N-Propyl-6-(phenylcarbamate)-N-propyl-D-gluco-δ-lactam], the GI50 came to 208 µM in assay [1]; 280 µM in assay [2]; 161 µM in assay [3]; 235 µM in assay [4]; 226 µM in assay [5]; 115 µM in assay [6].
For the compound `C=CCN1C[C@H](OCc2ccccc2)[C@@H](OCc2ccccc2)[C@H](OCc2ccccc2)[C@H]1COC(=O)Nc1ccc(Cl)cc1` [Compound No. 44, N-Allyl-2,3,4-tri-O-benzyl-6-{p-chlorophenylcarbamate}-1,5-dideoxy-1,5-imino glucitol], the GI50 stood at 29.2 µM in assay [1]; 7.5 µM in assay [2]; 8.7 µM in assay [3]; 29.8 µM in assay [4]; 88.5 µM in assay [5]; 2.3 µM in assay [6].
For `C=CCN1C(=O)[C@H](OCc2ccccc2)[C@@H](OCc2ccccc2)[C@H](OCc2ccccc2)[C@H]1COC(=O)c1cccs1` [Compound No. 45], the GI50 in assay [1] was 92.9 µM; in assay [2] it was above 419 µM; in assay [3] it was above 419 µM; in assay [4], above 419 µM; in assay [5], 148 µM; in assay [6], 397 µM.
With `CCCN1C(=O)[C@H](OCc2ccccc2)[C@@H](OCc2ccccc2)[C@H](OCc2ccccc2)[C@H]1CNC(=O)c1cccs1` [Compound No. 46, 2,3,4-Tri-O-benzyl-N-propyl-6-{[2-thiophene]carboxamido}-D-gluco-δ-lactam], the GI50 in assay [1] was determined as 3.3 µM; in assay [2], 83.4 µM; in assay [3], 178 µM; in assay [4], 105 µM; in assay [5], 83.8 µM; in assay [6] it was 18.4 µM.
Take `CCCN1C(=O)[C@H](OCc2ccccc2)[C@@H](OCc2ccccc2)[C@H](OCc2ccccc2)[C@H]1CNC(=O)c1ccc(F)cc1F` [Compound No. 47, 2,3,4-Tri-O-benzyl-6-N-{[2,4-difluorophenyl]carboxamido}-N-propyl-D-gluco-δ-lactam]: the GI50 in assay [1] was determined as 49.3 µM; in assay [2] it was 68.2 µM; in assay [3], 51.4 µM; in assay [4], 155 µM; in assay [5], 153 µM; in assay [6] it was 14.7 µM.
Consider `CCCN1C(=O)[C@H](OCc2ccccc2)[C@@H](OCc2ccccc2)[C@H](OCc2ccccc2)[C@H]1CNC(=O)C12CC3CC(CC(C3)C1)C2` [Compound No. 48, 2,3,4-Tri-O-benzyl-6-(adamantanecarboxamido}-N-propyl-D-gluco-δ-lactam], for which the GI50 in assay [1] is 67.9 µM; in assay [2] it was 58.4 µM; in assay [3], 31.8 µM; in assay [4], 12.9 µM; in assay [5], 104 µM; in assay [6] it was 18.8 µM.
With `CCCN1C(=O)[C@H](O)[C@@H](O)[C@H](O)[C@H]1CNC(=O)Nc1ccc(F)cc1F` [Compound No. 49, 6-N-{[2,4Difluorophenyl]aminocarbonylamino}-N-propyl-D-gluco-δ-lactam], the GI50 in assay [1] amounted to 131 µM; in assay [2], 251 µM; in assay [3], 133 µM; in assay [4] it was 122 µM; in assay [5], 352 µM; in assay [6], 177 µM.
On to `CCCN1C(=O)[C@H](O)[C@@H](O)[C@H](O)[C@H]1CNC(=O)C12CC3CC(CC(C3)C1)C2` [Compound No. 50, 6-(Adamantanecarboxamido)-N-propyl-D-gluco-δ-lactam], for which the GI50 worked out at 38.1 µM in assay [1]; 138 µM in assay [2]; 97.2 µM in assay [3]; 144 µM in assay [4]; 108 µM in assay [5]; 82.8 µM in assay [6].
Turning to `CCCN1C(=O)[C@H](OCc2ccccc2)[C@@H](OCc2ccccc2)[C@H](OCc2ccccc2)[C@H]1CNC(=O)CCl` [Compound No. 52, 2,3,4-Tri-O-benzyl-6-N-{2-[chloro]-acetyl}-N-propyl-D-gluco-δ-lactam], the GI50 in assay [1] was 6.8 µM; in assay [2] it was 0.8 µM; in assay [3], 0.9 µM; in assay [4], 2.9 µM; in assay [5], 7.2 µM; in assay [6], 6 µM.
For `CCCN1C(=O)[C@H](OCc2ccccc2)[C@@H](OCc2ccccc2)[C@H](OCc2ccccc2)[C@H]1CNC(=O)Cn1cncn1` [Compound No. 53, 2,3,4-Tri-O-benzyl-N-propyl-6-{2-[triazolyl]-acetyl}-D-gluco-δ-lactam], the GI50 in assay [1] is 9.3 µM; in assay [2], 10 µM; in assay [3], 8.3 µM; in assay [4], 12.9 µM; in assay [5], 8.8 µM; in assay [6], 6.6 µM.
Turning to `CCCN1C(=O)[C@H](OCc2ccccc2)[C@@H](OCc2ccccc2)[C@H](OCc2ccccc2)[C@H]1CNC(=O)CN1CCN(c2ncccn2)CC1` [Compound No. 54, 2,3,4-Tri-O-benzyl-6-N-{2-[4-(pyrimidyl)piperazinyl]acetyl}-N-propyl-D-gluco-δ-lactam], the GI50 is 3.6 µM in assay [1]; 6.6 µM in assay [2]; 2.3 µM in assay [3]; 3.2 µM in assay [4]; 5 µM in assay [5]; 4.1 µM in assay [6].
Take `CCCN1C(=O)[C@H](OCc2ccccc2)[C@@H](OCc2ccccc2)[C@H](OCc2ccccc2)[C@H]1CNC(=O)CNc1ccc(F)cc1` [Compound No. 55, 2,3,4-Tri-O-benzyl-6-N-{2-[4-fluoroanilino]acetyl}-N-propyl-D-gluco-δ-lactam]: the GI50 turned out to be 4.7 µM in assay [1]; 10.2 µM in assay [2]; 3.3 µM in assay [3]; 4.1 µM in assay [4]; 4.1 µM in assay [5]; 8.2 µM in assay [6].
For `CCCN1C(=O)[C@H](OCc2ccccc2)[C@@H](OCc2ccccc2)[C@H](OCc2ccccc2)[C@H]1COC(=O)CN1C(=O)CCCC1=O` [Compound No. 56, 2,3,4-Tri-O-benzyl-6-{2-[2,6-diketopiperidino]acetyl}-N-propyl-D-gluco-δ-lactam], the GI50 amounted to 22.8 µM in assay [1]; 24.5 µM in assay [2]; 12 µM in assay [3]; 40.5 µM in assay [4]; 10.7 µM in assay [5]; 40.3 µM in assay [6].
`CCCN1C(=O)[C@H](OCc2ccccc2)[C@@H](OCc2ccccc2)[C@H](OCc2ccccc2)[C@H]1CNC(=O)Cn1ncn(-c2ccc(Cl)cc2)c1=O` [Compound No. 57, 2,3,4-Tri-O-benzyl-6-N-{2-[4-chlorophenyl-3-(2H,4H)-1,2,4-triazol-3-onyl]acetyl}-N-propyl-D-gluco-δ-lactam]: the GI50 in assay [1] turned out to be 22.7 µM; in assay [2] it was 247 µM; in assay [3], 25.1 µM; in assay [4] it was 154 µM; in assay [5], 64.4 µM; in assay [6], 20.1 µM.
